# Entries after “also recorded” stand apart in the source; their conditions may differ. Non-standard residues stand in square brackets, D forms with d. No end group written: not given here. 2Nal = N[C@@H](Cc1ccc2ccccc2c1)C(=O)O; Sar = CNCC(=O)O
# Assays:
# carboplatin treated mice [1] = assay: Example 2: dosing before and/or after carboplatin, hematological parameters in mice; assay type: in vivo, BALB/c mouse
# Procedure: (§1) The effects of PEGylated TPO Compound No. 1 on mice treated with carboplatin were observed. For all examples herein, a 10 mg/ml stock solution of PEGylated TPO Compound No. 1 was prepared in sterile saline. For mixing, the preparation was placed on a gyratory shaker for 15 mm. at 200 rpm. This method was used to dissolve PEGylated TPO Compound No. 1 without foaming. The stock was filtered using a GV Millex (0.22 μm) filter. Dosing solutions were then prepared from this stock using sterile saline. The stock and dosing solutions were prepared fresh on the day of use.
# The possibility that PEGylated TPO Compound No. 1 may sensitize bone marrow hematopoietic stem cells of mice to the toxic effects of carboplatin treatment was examined. For this study, a dose of PEGylated TPO Compound No. 1 was administered to the mice seven days prior to the carboplatin dose or immediately after carboplatin treatment. An additional group was treated with PEGylated TPO Compound No. 1 both prior to and after carboplatin administration. The effect of these dosing regimens on hematological parameters was also observed.
# The groups of mice were treated with either carboplatin or vehicle (Phosphate Buffered Saline, PBS) by ip administration on Days 7 and 8 as delineated below. The optimal dose of carboplatin used to induce thrombocytopenia in the BALB/c mouse strain was previously determined to be a fractionated total dose of 120 mg/kg given as two consecutive daily injections (i.e., 2×60 mg/kg). Seven days prior to the first carboplatin dose or one (1) hour after the second dose of carboplatin, groups of mice were treated with PEGylated TPO Compound No. 1 (300 μg/kg) or vehicle (sterile saline, SS, preservative-free 0.9% sodium chloride) by IV (bolus) injection as delineated in Table 2. An additional group was treated with PEGylated TPO Compound No. 1 both before (Day 0) and after (Day 8, t=1 h) the carboplatin dose. All dosing was performed on a per-weight basis (100 μl/10 g body weight).
# On Days 14, 18, 22 and 26, five mice in each test group were weighed and then euthanised using CO2-asphyxiation and exsanguination via cardiac puncture. The blood samples were transferred to separate EDTA (lavender-top) microcontainers for hematological evaluation. Groups of control mice (5) were processed on Days 14 and 26. The data are presented graphically as group means +SEM.
# carboplatin-treated mice = assay: Example 4: lower doses, survival of erythrocyte lineages in carboplatin-treated mice; assay type: in vivo, BALB/c mouse
# Procedure: as §1
# The ability of PEGylated TPO Compound No. 1 to function as a survival factor for megakaryocyte and erythrocyte lineages in carboplatin-treated mice as determined by changes in hematological parameters was observed. […] In this study, the effect of lower doses of PEGylated TPO Compound No. 1 (i.e., 30, 100 and 300 μg/kg) on the survival of erythrocyte lineages was examined to characterize the dose-response for this effect.
# The groups of mice were treated with either carboplatin or vehicle (Phosphate Buffered Saline, PBS) by ip administration on Days −1 and 0 as delineated below. The optimal dose of carboplatin used to induce thrombocytopenia in the BALB/c mouse strain was previously determined to be a fractionated total dose of 120 mg/kg given as two consecutive daily injections (i.e., 2×60 mg/kg). Approximately one hour following the second dose of carboplatin, groups of mice were treated with PEGylated TPO Compound No. 1 or vehicle (sterile saline, SS, preservative-free 0.9% sodium chloride) by IV (bolus) injection as delineated in Table 4. The dose was administered on a per-weight basis (100 μl/10 g body weight).
# On Days 6, 8 and 12, five mice in each test group were weighed and then euthanised using CO2-asphyxiation and exsanguinations via cardiac puncture. The blood samples were transferred to separate EDTA (lavender-top) microcontainers for hematologic evaluation. Groups of control mice (5) were processed on Days 6 & 12.
# carboplatin treated mice [2] = assay: Example 5: two rounds of high-dose carboplatin, hematocrit and survival of mice; assay type: in vivo, mouse; settings: between days 4 and 18
# Procedure: as §1
# Groups of mice were treated with two rounds of the chemotherapeutic agent (carboplatin) ten days apart, with each round consisting of two consecutive days of carboplatin (i.e., 70 mg/kg/day administered on Days −1 & 0 and Days 10 & 11) as delineated below. The dose of carboplatin utilized for these survival studies exceeded the maximal tolerated dose for mice (i.e., 120 mg/kg; administered as 60 mg/kg/day on 2 consecutive days). One hour following the second dose of carboplatin in each round (i.e., Day 0 and 11) mice were treated with PEGylated TPO Compound No. 1 (100 μg/kg) or vehicle (sterile saline, SS, preservative-free 0.9% sodium chloride) by IV (bolus) injection as delineated below. The dose was administered on a per weight basis (100 μl/10 g body weight). […]
# carboplatin treated mice [3] = assay: Example 6: mechanistic study, increasing carboplatin, hematology and brain fibrinogen/fibrin histology; assay type: in vivo, mouse
# Procedure: as §1
# For mechanistic studies, groups of mice were treated with vehicle or increasing amounts of carboplatin (i.e., 60, 70 or 80 mg/kg) for 2 consecutive days (Day −1 & Day 0). Approximately one hour following the second dose of carboplatin, groups of mice were treated with PEGylated TPO Compound No. 1 (100 μg/kg) or vehicle (sterile saline, SS, preservative-free 0.9% sodium chloride) by IV (bolus) injection as delineated in Table 5.
# On Day 15, the mice in all treatment groups were euthanised using CO2-asphyxiation and exsanguinations via cardiac puncture. The blood samples were transferred to separate EDTA (lavender-top) microtainers for hematologic evaluation. In addition, several organs (including the brains) of control mice and mice treated with 2×70 mg/kg carboplatin without and with co-treatment with PEGylated TPO Compound No. 1 were isolated and processed for histological examination. Sections of these tissues were processed immunohistochemically for fibrinogen/fibrin.
molecule,measurement,setting,value
"Methoxypolyethyleneglycol20000-propionyl-L-Isoleucyl-L-Glutamyl-Glycyl-L-Prolyl-L-Threonyl-L-Leucyl-L-Arginyl-L-Glutaminyl-L-2-Naphthylalanyl-L-Leucyl-L-Alanyl-L-Alanyl-L-Arginyl-Sarcosyl-Ne-(methoxypolyethyleneglycol20000-propionyl-L-Isoleucyl-L-Glutamyl-Glycyl-L-Prolyl-L-Threonyl-L-Leucyl-L-Arginyl-L-Glutaminyl-L-2-Naphthylalanyl-L-Leucyl-L-Alanyl-L-Alanyl-L-Arginyl-Sarcosyl-)-Lysinamide ({methoxypolyethyleneglycol20000‑propionyl}-IEGPTLRQ[2Nal]LAAR[Sar]K[Sar]RAAL[2Nal]QRLTPGEI; also: dimer: positions 16-29 are the second 14-mer written in reverse, its Sar C-terminus joined to the K15 epsilon-amine, K15 is C-terminal lysinamide (NH2), methoxypolyethyleneglycol20000-propionyl also on Ile29 N-terminus) [PEGylated TPO Compound No. 1]",carboplatin-induced changes in erythrocyte parameters,"carboplatin treated mice [1]; 300 μg/kg iv on Day 0 (only), seven days prior to carboplatin",failed to affect carboplatin-induced changes
same,"carboplatin-induced decreases in hemoglobin levels, RBC counts and hematocrits",carboplatin treated mice [1]; 300 μg/kg iv on Day 8 (1 hour after second carboplatin) without or with additional dose on Day 0,prevented
same,body weight between Days 7 and 26,"carboplatin treated mice [1]; carboplatin plus various co-treatments, 300 μg/kg iv, no statistical analysis",prevented this weight loss
same,"onset of signs (hunched, unkempt)",carboplatin treated mice [1]; treatment on Day 8 without or with additional treatment on Day 0,appeared to delay the onset of these signs
same,"severity and duration of signs (hunched, unkempt)",carboplatin treated mice [1]; treatment on Days 0 and 8,decreased the severity and duration
same,carboplatin-induced decreases in RBC counts and hematocrit,"carboplatin-treated mice; 30, 100, 300 μg/kg iv",effectively inhibited
same,weight loss or recovery,"carboplatin-treated mice; 30, 100, 300 μg/kg iv, 13-Day study period",did not appear to affect weight loss or recovery
same,carboplatin-induced decrease in hemoglobin levels,"carboplatin-treated mice; all doses (30, 100, 300 μg/kg iv, about one hour after second carboplatin dose), Day 12",totally inhibited
same,anemia induced by carboplatin,"carboplatin-treated mice; all doses, Day 12",completely prevent the anemia
same,"altered appearance and behavior (hunched, unkempt, soft stool)",carboplatin-treated mice; appeared to be dose-dependent,"decreased the onset, frequency and severity of these signs"
same,deaths among mice not utilized for hematological evaluation,"carboplatin treated mice [2]; combination therapy (carboplatin 70 mg/kg/day, 2 rounds, plus 100 μg/kg iv)",1 mouse
same,carboplatin-induced decreases in platelet and RBC counts,"carboplatin treated mice [3]; 100 μg/kg iv about one hour after second carboplatin dose, Day 15",totally inhibited
same,"microthrombotic events in brain sections, entire dose group",carboplatin treated mice [3]; 2×70 mg/kg carboplatin plus 100 μg/kg iv,single
same,fibrinogen/fibrin staining of small vessels in brain sections,"carboplatin treated mice [3]; 2×70 mg/kg carboplatin plus 100 μg/kg iv, Day 15, 70 mg/kg",appeared normal or exhibited fibrinogen/fibrin staining that was only slightly darker than the control group; also recorded: reduces fibrinogen deposition and blood clots
same,thrombocytopenia or anemia,"carboplatin treated mice [3]; 2×80 mg/kg carboplatin plus 100 μg/kg iv, Day 15",did not exhibit thrombocytopenia or anemia
same,survival,"carboplatin treated mice [3]; 2×80 mg/kg carboplatin plus 100 μg/kg iv, all of the mice",survived until the scheduled study termination
"N.N.O=C([O-])C1(C(=O)[O-])CCC1.[Pt+2] [carboplatin, reference compound]","decreases in hemoglobin levels, RBC counts and hematocrits","carboplatin treated mice [1]; carboplatin alone 2×60 mg/kg ip, Days 18 and 22 compared to control groups",approx. 18%
same,body weight loss (average),"carboplatin treated mice [1]; carboplatin alone, between Days 7 and 26",approximately 4%
same,decrease in hemoglobin levels,"carboplatin-treated mice; carboplatin alone 2×60 mg/kg ip, by Day 12",greater than 25%
same,deaths among mice not utilized for hematological evaluation,"carboplatin treated mice [2]; carboplatin alone 70 mg/kg/day, 2 rounds",7 mice
same,mortality,"carboplatin treated mice [3]; 2×80 mg/kg carboplatin (alone), all of the mice, prior to study termination",either found dead or were euthanized (moribund)

# From patent publication US7615533B2, “TPO peptide compounds for treatment of anemia” (Janssen Pharmaceutica N.V., priority 2004, dated 2009)
